Assay results: US20200054589A1, “COMBINATION OF A PPAR AGONIST WITH A FXR AGONIST” (Genfit, priority 2017, published 2020)

Tests used:
[1] = tested on: TGFβ1-induced human primary hepatic stellate cells (hHSC), α-SMA; assay: α-SMA ELISA in TGFβ1-activated hHSC (in vitro model of hepatic fibrogenesis), synergy by Excess Over Bliss; assay type: cell-based; settings: TGFβ1 1 ng/ml, 48 h
Description: The human primary hepatic stellate cells (hHSC) (Innoprot) were cultured in STeCM medium (ScienCell cat #5301) supplemented with 2% fetal bovine serum (FBS, ScienCell cat #0010), 1% penicillin/streptomycin (ScienCell cat #0503) and stellate cell growth supplement (SteCGS; ScienCell cat #5352). Cell-culture flasks were coated with Poly-L Lysine (Sigma cat # P4707) for a better adherence.
The FXR agonist INT-767 (CAS #1000403-03-1, Cat # HY-12434, batch #19249) was obtained commercially from Haoyuan Chemexpress. For these experiments, a checkerboard matrix was generated. […]
The level of α-SMA was measured using a Sandwich ELISA. […]
The values obtained in the αSMA ELISA assays were first transformed into percentage inhibitions over TGF-β1 control. Then, using these percentage inhibitions, EOB (Excess Over Bliss) was determined to define the synergistic effects of drug combinations. Expected Bliss additivism score (E) was firstly determined by the equation: […]
For the combinations INT-767/Elafibranor, an additional total Bliss score was calculated by summation of all EOB. […]
The significance of the observed differences between INT-767/Elafibranor over the highest single agent was determined by a student's t-test. *: p<0.05; **: p<0.01; ***: p<0.001.

[2] = tested on: fibrosing NASH-model of rats fed a CDAA+1% cholesterol diet; assay: Hepatic collagen content (hydroxyproline, QuickZyme) in CDAA+1% cholesterol model; assay type: in vivo, Wistar rats; settings: Percentage over the untreated CDAA + 1% cholesterol rats; 12 weeks; GFT505 3 mg/kg/d, OCA 10 mg/kg/d, or GFT505 + OCA; mean ± SD
Description: (§1) The preventive effects of Elafibranor (GFT505) alone, OCA alone and the combination of both were assessed in a fibrosing NASH-model of rats fed a CDAA+1% cholesterol diet. 150-175 g male Wistar rats were fed a control (CSAA) diet, CDAA+1% cholesterol diet, or CDAA+1% cholesterol diet supplemented with Elafibranor 1, 3 and 10 mg/kg/day, OCA 10 and 30 mg/kg/day or combined drugs (Elafibranor 1, 3 and 10 mg/kg/day combined to OCA 10 mg/kg/day) for 12 weeks.
(§2) The body weight and the food intake were monitored twice per week. On the last day of treatment, rats were sacrificed after a 6 h fasting period. The liver was rapidly excised for biochemical and histological studies.
The hepatic collagen content was determined using the appropriate QuickZyme kit (Total collagen assay, cat # QZB-totcol2). The assay is based on the detection of hydroxyproline, which is a non-proteinogenic amino acid mainly found in the triple helix of collagen. Thus, hydroxyproline in tissue hydrolysates can be used as a direct measure of the amount of collagen present in the tissue (without discrimination between procollagen, mature collagen and collagen degradation products). Complete hydrolysis of tissue samples in 6M HCl at 95° C. is required before dosing the hydroxyproline. The assay results in the generation of a chromogen with a maximum absorbance at 570 nm. Results are expressed as mg of collagen/g of liver.

[3] = tested on: genes involved in tissue remodeling and inflammation (αSMA (ACTA2), TIMP1, TGFB1, CCR5) in CDAA/chol fed rat livers; assay: Hepatic gene expression analysis (quantitative PCR) in CDAA+1% cholesterol model; assay type: in vivo, Wistar rats; settings: liver; Percentage over the untreated CDAA + 1% cholesterol rats; 12 weeks; GFT505 3 mg/kg/d, OCA 10 mg/kg/d, or GFT505 + OCA
Description: as §1, §2
Total RNA was isolated from rat livers using RNeasy Mini Kit (Qiagen) following manufacturer's instructions. Total RNA were reverse transcribed into cDNA using M-MLV RT (Moloney Murine Leukemia Virus Reverse Transcriptase) (Invitrogen cat #28025) in 1× RT buffer (Invitrogen), 0.5 mM DTT (Invitrogen), 0.18 mM dNTPs (Promega), 200 ng pdN6 (Amersham) and 30 U of RNase inhibitor (Promega).
Quantitative PCR was then carried out using the CFX96 Touch™ Real-Time PCR Detection System (Biorad). Briefly, the PCR reactions were performed in 96-WP format in 25 μl of total volume containing 1 μL of reverse transcription reaction, 0.5 μL of reverse and forward primers (10 pmol each), and 12.5 μl of 2× iQ SYBR Green Supermix (BioRad), using the following primer sequences:
Expression levels were normalized using the expression of Rplp0 gene as a reference in samples. For each gene, the standard curves were drawn by selecting the best points (at least three points) in order to have PCR reaction efficiency close to 100% and a correlation coefficient close to 1. Expression levels were determined using the standard curve equation for both the housekeeping gene and the target gene (taking into account the specific PCR efficiency of each target gene).

[4] = tested on: fibrosing NASH-model of rats fed a CDAA+1% cholesterol diet; assay: Liver histology (picrosirius fibrosis surface, NASH lesions) in chronic CDAA+1% cholesterol model (12 weeks); assay type: in vivo, Wistar rats
Description: as §1, §2
The liver slices were first fixed for 12 hours in formalin 4% solution. Then, the liver pieces were washed 30 minutes in PBS, and dehydrated in ethanol solutions (successive baths at 70, 80, 95 and 100% ethanol). The liver pieces were incubated in three different baths of Xylene (Sigma-Aldrich cat #534056), followed by two baths in liquid paraffin (56° C.). Liver pieces were then put into racks that were gently filled with Histowax® to completely cover the tissue. The paraffin blocks containing the tissue pieces were removed from the racks and stored at room temperature. The liver blocks were cut into […] slices.
Liver sections were deparaffinized, rehydrated and incubated for 15 minutes in a solution of Fast Green FCF 0.1% (Sigma-Aldrich, cat # F7258) before rinsing in a bath of 0.5% acetic acid (Panreac, cat #131008.1611). […]
A technician blinded to the source of each liver specimen performed histological examinations. […] Briefly, steatosis, lobular inflammation and hepatocytes ballooning were scored. […]
Using Quant Center software (3D Histech, including Pattern Quant and Histo Quant modules), collagen-stained areas were quantified. […] The fibrosis area was then expressed as the percentage of the collagen surface to the whole tissue per animal.

| Structure (SMILES) | antifibrotic activity (α-SMA inhibition), in words ([1]; 1.9 μM of INT-767 alone) | inhibition at 30 µM ([1]; Homo sapiens, highest dose of INT-767 tested, 30 μM, read-out: α-SMA production inhibition over TGFβ1 control) [%] | Hepatic collagen content [2] | CCR5 mRNA level (marker of inflammation) [3] | TGFβ1 mRNA level [3] | TIMP1 mRNA level [3] | α-SMA mRNA level [3] | effects on ballooning and lobular inflammation, in words ([4]; CDAA/chol diet-induced NASH model) | effect on fibrosis development, in words (FIGS. 1-2) ([4]; CDAA/chol fed rats, 12 weeks, fibrosis surface and hepatic collagen) | Fibrosis surface ([4]; Percentage over the untreated CDAA + 1% cholesterol rats, 12 weeks in diet, GFT505 3 mg/kg/d, OCA 10 mg/kg/d, or GFT505 + OCA, mean ± SD) |
| --- | --- | --- | --- | --- | --- | --- | --- | --- | --- | --- |
| CC[C@H]1[C@@H](O)[C@@H]2[C@H](CC[C@]3(C)[C@@H]([C@H](C)CCOS(=O)(=O)[O-])CC[C@@H]23)[C@@]2(C)CC[C@@H](O)C[C@@H]12.[Na+] [INT-767] | does not show any antifibrotic activity | 13 |  |  |  |  |  |  |  |  |
| CC[C@H]1[C@@H](O)[C@@H]2[C@H](CC[C@]3(C)[C@@H]([C@H](C)CCC(=O)O)CC[C@@H]23)[C@@]2(C)CC[C@@H](O)C[C@@H]12 [OCA, 6α-ethyl chenodeoxycholic acid] |  |  | 67% ± 23% | 81% ± 28% | 110% ± 23% | 110% ± 43% | 109% ± 68% | rather modest | does not attenuate fibrosis in a significant manner | 74% ± 45% |
